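48-hour exposure; five concentrations; linearly interpolated endpoints. Here, GI50 denotes the concentration required for 50% inhibition of growth. TGI: concentration producing complete growth inhibition.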
Columns and labels:
Experiment in all cases: NCI anticancer screen, dose series, 48 h
OVCAR-4 ovarian = test system: OVCAR-4 ovarian
OVCAR-8 ovarian = test system: OVCAR-8 ovarian
LOX IMVI melanoma = test system: LOX IMVI melanoma
786-0 renal = test system: 786-0 renal
MALME-3M melanoma = test system: MALME-3M melanoma
NCI-H460 lung = test system: NCI-H460 lung
IGROV1 ovarian = test system: IGROV1 ovarian
BT-549 breast = test system: BT-549 breast
HCC-2998 colon = test system: HCC-2998 colon
SNB-19 CNS = test system: SNB-19 CNS
SR leukemia = test system: SR leukemia
COLO 205 colon = test system: COLO 205 colon
NCI/ADR-RES ovarian = test system: NCI/ADR-RES ovarian
M14 melanoma = test system: M14 melanoma
UACC-62 melanoma = test system: UACC-62 melanoma
HCT-15 colon = test system: HCT-15 colon
PC-3 prostate = test system: PC-3 prostate
HT29 colon = test system: HT29 colon
UO-31 renal = test system: UO-31 renal
CCRF-CEM leukemia = test system: CCRF-CEM leukemia
TK-10 renal = test system: TK-10 renal
HOP-62 NSCLC = test system: HOP-62 NSCLC
KM12 colon = test system: KM12 colon
MDA-MB-435 = test system: MDA-MB-435
K-562 leukemia = test system: K-562 leukemia
SF-268 CNS = test system: SF-268 CNS
NCI-H23 lung = test system: NCI-H23 lung
HS 578T breast = test system: HS 578T breast
MDA-MB-231 breast = test system: MDA-MB-231 breast
MCF7 breast = test system: MCF7 breast
SK-MEL-2 melanoma = test system: SK-MEL-2 melanoma
HOP-92 NSCLC = test system: HOP-92 NSCLC
SW-620 colon = test system: SW-620 colon
T-47D breast = test system: T-47D breast
SN12C renal = test system: SN12C renal
SNB-75 CNS = test system: SNB-75 CNS
SF-295 CNS = test system: SF-295 CNS
RXF 393 renal = test system: RXF 393 renal
SK-MEL-28 melanoma = test system: SK-MEL-28 melanoma
SF-539 CNS = test system: SF-539 CNS
UACC-257 melanoma = test system: UACC-257 melanoma
NCI-H522 lung = test system: NCI-H522 lung
RPMI-8226 leukemia = test system: RPMI-8226 leukemia
OVCAR-3 ovarian = test system: OVCAR-3 ovarian
HCT-116 colon = test system: HCT-116 colon
DU-145 prostate = test system: DU-145 prostate
SK-OV-3 ovarian = test system: SK-OV-3 ovarian
ACHN renal = test system: ACHN renal
EKVX NSCLC = test system: EKVX NSCLC
A498 renal = test system: A498 renal
U251 CNS = test system: U251 CNS
HL-60(TB) leukemia = test system: HL-60(TB) leukemia
SK-MEL-5 melanoma = test system: SK-MEL-5 melanoma
NCI-H226 lung = test system: NCI-H226 lung
MOLT-4 leukemia = test system: MOLT-4 leukemia
A549 NSCLC = test system: A549 NSCLC
OVCAR-5 ovarian = test system: OVCAR-5 ovarian

SMILES: C=C1C(=O)O[C@H]2[C@H]1CC/C(COC(=O)N1CCC[C@H]1C(=O)Nc1ccc(OC)c(C(N)=O)c1O)=C\CC[C@@]1(C)O[C@@H]21
- GI50 (OVCAR-4 ovarian): 2.88 µM
- TGI (OVCAR-4 ovarian): 12.9 µM
- GI50 (OVCAR-8 ovarian): 4.73 µM
- TGI (OVCAR-8 ovarian): 26 µM
- GI50 (LOX IMVI melanoma): 1.39 µM
- TGI (LOX IMVI melanoma): 3.23 µM
- GI50 (786-0 renal): 2.27 µM
- TGI (786-0 renal): 6.56 µM
- GI50 (MALME-3M melanoma): 2.42 µM
- TGI (MALME-3M melanoma): 6.54 µM
- GI50 (NCI-H460 lung): 11.4 µM
- TGI (NCI-H460 lung): 29 µM
- GI50 (IGROV1 ovarian): 2.82 µM
- TGI (IGROV1 ovarian): 9.13 µM
- GI50 (BT-549 breast): 1.62 µM
- TGI (BT-549 breast): 5.12 µM
- GI50 (HCC-2998 colon): 8.61 µM
- TGI (HCC-2998 colon): 23.3 µM
- GI50 (SNB-19 CNS): 7.62 µM
- TGI (SNB-19 CNS): 23.9 µM
- GI50 (SR leukemia): 1.59 µM
- TGI (SR leukemia): 12.7 µM
- GI50 (COLO 205 colon): 1.6 µM
- TGI (COLO 205 colon): 3.28 µM
- GI50 (NCI/ADR-RES ovarian): 61 µM
- TGI (NCI/ADR-RES ovarian): > 100 µM
- GI50 (M14 melanoma): 1.89 µM
- TGI (M14 melanoma): 4.19 µM
- GI50 (UACC-62 melanoma): 2.39 µM
- TGI (UACC-62 melanoma): 7.66 µM
- GI50 (HCT-15 colon): 4.34 µM
- TGI (HCT-15 colon): 17.2 µM
- GI50 (PC-3 prostate): 4.95 µM
- TGI (PC-3 prostate): 18.9 µM
- GI50 (HT29 colon): 3.24 µM
- TGI (HT29 colon): 11.1 µM
- GI50 (UO-31 renal): 2.11 µM
- TGI (UO-31 renal): 8.97 µM
- GI50 (CCRF-CEM leukemia): 1.65 µM
- TGI (CCRF-CEM leukemia): 5.95 µM
- GI50 (TK-10 renal): 1.92 µM
- TGI (TK-10 renal): 7.16 µM
- GI50 (HOP-62 NSCLC): 12.8 µM
- TGI (HOP-62 NSCLC): 30.2 µM
- GI50 (KM12 colon): 5.53 µM
- TGI (KM12 colon): 20 µM
- GI50 (MDA-MB-435): 3.8 µM
- TGI (MDA-MB-435): 15.9 µM
- GI50 (K-562 leukemia): 2.43 µM
- TGI (K-562 leukemia): 10.2 µM
- GI50 (SF-268 CNS): 5.63 µM
- TGI (SF-268 CNS): 24.7 µM
- GI50 (NCI-H23 lung): 5.44 µM
- TGI (NCI-H23 lung): 22.6 µM
- GI50 (HS 578T breast): 17.9 µM
- TGI (HS 578T breast): > 100 µM
- GI50 (MDA-MB-231 breast): 2.68 µM
- TGI (MDA-MB-231 breast): 10.1 µM
- GI50 (MCF7 breast): 2.38 µM
- TGI (MCF7 breast): 9.55 µM
- GI50 (SK-MEL-2 melanoma): 6.58 µM
- TGI (SK-MEL-2 melanoma): 34.4 µM
- GI50 (HOP-92 NSCLC): 1.23 µM
- TGI (HOP-92 NSCLC): 3.32 µM
- GI50 (SW-620 colon): 1.64 µM
- TGI (SW-620 colon): 4.01 µM
- GI50 (T-47D breast): 2.42 µM
- TGI (T-47D breast): 6.7 µM
- GI50 (SN12C renal): 2.96 µM
- TGI (SN12C renal): 10.3 µM
- GI50 (SNB-75 CNS): 2.67 µM
- TGI (SNB-75 CNS): 14.9 µM
- GI50 (SF-295 CNS): 12.1 µM
- TGI (SF-295 CNS): 27.4 µM
- GI50 (RXF 393 renal): 1.2 µM
- TGI (RXF 393 renal): 2.79 µM
- GI50 (SK-MEL-28 melanoma): 2.87 µM
- TGI (SK-MEL-28 melanoma): 10.2 µM
- GI50 (SF-539 CNS): 2.07 µM
- TGI (SF-539 CNS): 5.76 µM
- GI50 (UACC-257 melanoma): 2.88 µM
- TGI (UACC-257 melanoma): 10.9 µM
- GI50 (NCI-H522 lung): 1.68 µM
- TGI (NCI-H522 lung): 4.07 µM
- GI50 (RPMI-8226 leukemia): 1.93 µM
- TGI (RPMI-8226 leukemia): 4.87 µM
- GI50 (OVCAR-3 ovarian): 1.86 µM
- TGI (OVCAR-3 ovarian): 4.48 µM
- GI50 (HCT-116 colon): 1.33 µM
- TGI (HCT-116 colon): 3.06 µM
- GI50 (DU-145 prostate): 3.95 µM
- TGI (DU-145 prostate): 14.5 µM
- GI50 (SK-OV-3 ovarian): 20.9 µM
- TGI (SK-OV-3 ovarian): 65.6 µM
- GI50 (ACHN renal): 2.9 µM
- TGI (ACHN renal): 10.9 µM
- GI50 (EKVX NSCLC): 4 µM
- TGI (EKVX NSCLC): 32.9 µM
- GI50 (A498 renal): 9.17 µM
- TGI (A498 renal): 22.6 µM
- GI50 (U251 CNS): 6.76 µM
- TGI (U251 CNS): 20.9 µM
- GI50 (HL-60(TB) leukemia): 1.59 µM
- TGI (HL-60(TB) leukemia): 4.83 µM
- GI50 (SK-MEL-5 melanoma): 3.48 µM
- TGI (SK-MEL-5 melanoma): 14.2 µM
- GI50 (NCI-H226 lung): 2.24 µM
- TGI (NCI-H226 lung): 7.12 µM
- GI50 (MOLT-4 leukemia): 2.24 µM
- TGI (MOLT-4 leukemia): 5.63 µM
- GI50 (A549 NSCLC): 14.7 µM
- TGI (A549 NSCLC): 35.1 µM
- GI50 (OVCAR-5 ovarian): 4.41 µM
- TGI (OVCAR-5 ovarian): 18.2 µM

Source: PubChem BioAssay (NCI)
